# Reference: US5023322A, “Analogs of growth hormone releasing factor (GRF) and a method for the preparation thereof” (MTA Kutatas-es Szervezetelemzo Intezete, priority 1988, dated 1991)
# No end group written: not given here.
# Columns and labels:
# growth hormone release [1] = assay: plasma GH level in anaesthetized rats after intramuscular administration; format: in vivo, Wistar Amsterdam rats; details: administered intramuscularly, in the doses tested
# Procedure: (§1) The biological effects of the compounds according to the invention were tested under in vitro and in vivo conditions. In both instances the growth hormone release was measured as a function of the concentration of the compound administered. The amount of growth hormone released was detected by radioimmune assay with a reliability limit of 95%. The results obtained were compared to those obtained when administering native hpGRF or hGRF(1-29)--NH2, respectively.
# (§2) Mature male Wistar Amsterdam rats, weighing 250-300 g, were anaesthetized intraperitoneally with 60 mg/kg of pentobarbital. The peptides to be tested were dissolved in 0.9% by weight aqueous saline solution, and were administered to the animals 20 minutes after anaesthesy as an intravenous (i.v.), intramuscular (i.m.) or subcutaneous (s.c.) injection. Blood samples were taken from the jugular vein of the animals prior to the administration of the active agent (-1 minute) and 5, 15 and 30 minutes after challenge. The amount of growth hormone released was measured by radioimmune assay.
# (§3) Therefore, in these tests the activity of the compounds according to the invention was characterized by the percentage increase in the plasma growth hormone level related to that originally present in the plasma (basal value).
# milk production = details: cattle; J. Dairy Science 70, 2511 (1987) and 71, 92 (1988); cited from earlier work
# [2] = literature; cited from earlier work
# growth hormone release [3] = assay: plasma GH level in anaesthetized rats after intravenous administration; format: in vivo, Wistar Amsterdam rats; details: for Plasma GH level: i.v.
# Procedure: as §1, §2
# Therefore, when the compounds were administered intravenously, the percentage increase in activity was calculated by relating the amount of growth hormone released upon administering a compound of the invention to the amount of growth hormone released upon administering hGRF(1-29)--NH2.
# growth hormone release [4] = assay: plasma GH level in anaesthetized rats after subcutaneous administration; format: in vivo, Wistar Amsterdam rats; details: administered subcutaneously, in the doses tested
# Procedure: as §1, §2, §3
substance,measurement,setting,value
"hGRF(1-29)--NH2 (YADAIFTNSYRKVLGQLSARKLLQDIMSR-NH2; UniProt P01286 32-60, looked up, fragment) [Standard, fragment of the native human peptide amide extending from the N-terminal through residue 29; applied as standard]",activity on growth hormone release (in words),growth hormone release [1],practically inactive
same,"milk production of cattles, quality and quantity (in words)",milk production,influenced favourably
same,biological activity compared to the native hGRF(1-44)--NH2 (in words),[2],favourable activity
same,release of growth hormone (in words),growth hormone release [3]; administered intravenously,stimulated the release of growth hormone
same,Plasma GH level,"growth hormone release [3]; 0.8 μg/kg, +5 min",311.00 ng/mL
same,Plasma GH level,"growth hormone release [3]; 0.8 μg/kg, +15 min",93.60 ng/mL
same,Plasma GH level,"growth hormone release [3]; 0.8 μg/kg, +30 min",48.73 ng/mL
same,Plasma GH level,"growth hormone release [3]; 0.8 μg/kg, -1 min (before administration)",80.46 ng/mL
same,Plasma GH level,"growth hormone release [3]; 2 μg/kg, +5 min",1061.11 ng/mL
same,Plasma GH level,"growth hormone release [3]; 2 μg/kg, +15 min",393.13 ng/mL
same,Plasma GH level,"growth hormone release [3]; 2 μg/kg, +30 min",109.22 ng/mL
same,Plasma GH level,"growth hormone release [3]; 2 μg/kg, -1 min (before administration)",125.22 ng/mL
same,activity on growth hormone release (in words),growth hormone release [4],practically inactive
"human GRF(1-44)--NH2 (YADAIFTNSYRKVLGQLSARKLLQDIMSRQQGESNQERGARARL-NH2; UniProt P01286 32-75, looked up) [native human GRF, a peptide amide of 44 residues]","milk production of cattles, quality and quantity (in words)",milk production,influenced favourably
